Earlier results as cited in paper PMC9587990, “Molecular basis for isoform-selective inhibition of presenilin-1 by MRK-560” (Nature Communications, 2022).

Test system: PS1-complex over PS2
Settings: cited from earlier work

Compound	reported isoform selectivity
C[C@H](c1ccc(F)cc1CCCC(=O)O)N(c1cc(F)ccc1F)S(=O)(=O)c1ccc(Cl)cc1 [BMS299897]	PS1 selectivity
O=C1NCCCCC1N(Cc1ccc(Br)cc1)S(=O)(=O)c1ccc(Cl)cc1 (centres unmarked) [ELN318463]	PS1 selectivity
